Counter-ions that a name gives are not always drawn. Like-named read-outs stand apart in the source and are kept apart here.

One test deals with PDE4 enzyme. Put plainly: Inhibition of Phosphodiesterase Enzymes (PDE4), [3H]cAMP hydrolysis assay. Format: biochemical. The conditions noted are these: PDE4 inhibition, 1 μM cAMP, 34° C., 20 minutes. The protocol:
Inhibition of Phosphodiesterase Enzymes (PDE4)
In this assay, PDE4 enzyme converts [^3H] cAMP to the corresponding [^3H] 5′-AMP in proportion to the amount of PDE4 present. The [^3H] 5′-AMP then was quantitatively converted to free [^3H] adenosine and phosphate by the action of snake venom 5′-nucleotidase.
The assay was performed with modification of the method of Thompson and Appleman (Biochemistry; 1971; 10; 311-316) and Schwartz and Passoneau (Proc. Natl. Acad. Sci. U.S.A. 1974; 71; 3844-3848), both references incorporated herein by reference in their entirety, at 34° C. In a 200 ul total reaction mixture, the reaction mixture contained 12.5 mM of Tris, 5 mM MgCl2, 1 μM cAMP (cold) and ^3H cAMP (0.1 uCi), (Amersham). […] Drug samples were then added in the reaction mixture (25 μt/tube). The assay was initiated by addition of enzyme mix (75 μl) and the mixture was incubated for 20 minutes at 34° C. The reaction was stopped by boiling the tubes for 2 mins at 100° C. in a water bath. After cooling on ice for 5 minutes and addition of 50 ug/reaction of 5′-nucleotidase snake venom from Crotalus atrox incubation was carried out again for 20 min. at 34° C. The unreacted substrate was separated from (^3H) Adenosine by addition of Dowex AG 1-X8 (Biorad Lab), (400 ul) which was prequilibrated (1:1:1) in water and ethanol. Reaction mixture was then thoroughly mixed, placed on ice for 15 minutes, vortexed and centrifuged at 14,000 r.p.m. for 2 mins. After centrifugation, a sample of the supernatant was taken and added in 24 well optiplates containing Scintillant (1 ml) and mixed well. The samples in the plates were then determined for radioactivity in a Top Counter and the PDE4 activity was estimated. PDE4 enzyme was present in quantities that yield <30% total hydrolysis of substrate (linear assay conditions).
Results were expressed as percent inhibition (IC50) in nM concentrations. The IC50 values were determined from the concentration curves by nonlinear regression analysis.

The next test relates to PDE4. In words: EC50 of the PDE4 results table (method not given).

`COc1ccc(C(=O)Nc2c(Cl)cncc2Cl)c2c1oc1ccc(NCC(=O)O)cc12` [Example 53, N-(3,5-dichloropyrid-4-yl)-4-methoxy-8-(2-hydroxy-2-oxo-ethylamino)-dibenzo[b,d]furan-1-carboxamide]: on PDE4 enzyme, the IC50 (as a rule, the concentration at which inhibition is half-maximal) is 1.05 nM. Further, a half-maximal response in the test on PDE4 (EC50) required 71.5 nM.

Take `COc1ccc(C(=O)Nc2c(Cl)cncc2Cl)c2c1oc1ccc(NS(C)(=O)=O)cc12` [Example 01, N-(3,5-dichloropyrid-4-yl)-4-methoxy-8-methanesulfonamido-dibenzo[b,d]furan-1-carboxamide]: inhibition against PDE4 enzyme was half-maximal at 0.506 nM (IC50). In addition, the midpoint of the response in the test on PDE4, the EC50, lay at 8.57 nM. At PDE4 enzyme, `COc1ccc(C(=O)Nc2c(Cl)cncc2Cl)c2c1oc1ccc(NC(=O)NC3CCCC3)cc12` [Example 21, N-(3,5-dichloropyrid-4-yl)-4-methoxy-8-cyclopentylaminocarboxamido-dibenzo[b,d]furan-1-carboxamide] showed an IC50 of 1.19 nM. Moreover, the half-maximal effective concentration (EC50) (commonly the concentration needed to bring the measured effect to its halfway point) with PDE4 came to 23.8 nM. Molecule `COc1ccc(C(=O)Nc2c(Cl)cncc2Cl)c2c3cc(NC(C)=O)ccc3n(C)c12` [Example 54, N-(3,5-dichloropyrid-4-yl)-1-methoxy-9-methyl-6-acetamido-9H-4-carbazolecarboxamide] registered an IC50 against PDE4 enzyme of 237 nM. On PDE4 enzyme, `COc1ccc(C(=O)Nc2c(Cl)cncc2Cl)c2c1oc1ccc(NC(=O)OCC(C)C)cc12` [Example 16, N-(3,5-dichloropyrid-4-yl)-4-methoxy-8-isobutyloxycarboxamido-dibenzo[b,d]furan-1-carboxamide] gave an IC50 of 63.6 nM. Consider `O=C(Nc1c(Cl)cncc1Cl)c1ccc(OC(F)F)c2oc3ccc(NC(=O)C4CC4)cc3c12` [Example 36, N-(3,5-dichloropyrid-4-yl)-4-difluoromethoxy-8-cyclopropylcarboxamido-dibenzo[b,d]furan-1-carboxamide], for which inhibition at PDE4 enzyme was half-maximal at 4.64 nM (IC50). In the test with PDE4, this molecule displayed an EC50 of 8.44 nM. For `COc1ccc(C(=O)Nc2c(Cl)cncc2Cl)c2c1oc1ccc(NC(=O)N3CCN(C)CC3)cc12` [Example 22, N-(3,5-dichloropyrid-4-yl)-4-methoxy-8-(N-methylpiperazin-4-ylcarboxamido)-dibenzo[b,d]furan-1-carboxamide] the same measures were 1.28 nM and 9.34 nM. As to `CCNC(=O)Nc1ccc2oc3c(OC)ccc(C(=O)Nc4c(Cl)cncc4Cl)c3c2c1` [Example 28, N-(3,5-dichloropyrid-4-yl)-4-methoxy-8-ethylamino carboxamido-dibenzo[b,d]furan-1-carboxamide], 1.4 nM corresponded to half-maximal inhibition against PDE4 enzyme (IC50). The molecule further yielded an EC50 in the test with PDE4 of 6.33 nM. Regarding `COc1ccc(C(=O)Nc2c(Cl)cncc2Cl)c2c1oc1ccc(NC(=O)NC(C)C)cc12` [Example 26, N-(3,5-dichloropyrid-4-yl)-4-methoxy-8-isopropylamino carboxamido-dibenzo[b,d]furan-1-carboxamide], the IC50 on PDE4 enzyme worked out at 15.6 nM. Turning to `CCS(=O)(=O)Nc1ccc2oc3c(OC)ccc(C(=O)Nc4c(Cl)cncc4Cl)c3c2c1` [Example 03, N-(3,5-dichloropyrid-4-yl)-4-methoxy-8-(ethanesulphonamido)-dibenzo[b,d]furan-1-carboxamide], half-maximal inhibition against PDE4 enzyme (IC50) was put at 0.762 nM. The same molecule returned an EC50 in the test with PDE4 of 7.39 nM. Regarding `COc1ccc(C(=O)Nc2c(Cl)cncc2Cl)c2c1oc1ccc(NC(=O)C(=O)O)cc12` [Example 10, N-(3,5-dichloropyrid-4-yl)-4-methoxy-8-hydroxycarbonylcarboxamido-dibenzo[b,d]furan-1-carboxamide sodium salt], the IC50 at PDE4 enzyme (sodium salt) came to 1.85 nM. In addition, the EC50 in the test with PDE4 (sodium salt) came out at 38.2 nM.

Consider `COc1ccc(C(=O)Nc2c(Cl)cncc2Cl)c2c1oc1ccc(NC(=O)N3CCC(O)CC3)cc12` [Example 24, N-(3,5-dichloropyrid-4-yl)-4-methoxy-8-(4-hydroxypiperidin-1-ylcarboxamido)-dibenzo[b,d]furan-1-carboxamide], for which, on PDE4 enzyme, the IC50 was found to be 3.01 nM. It took 2.94 nM to reach a half-maximal effect with PDE4 (EC50). As for `O=C(O)C(=O)Nc1ccc2oc3c(OC(F)F)ccc(C(=O)Nc4c(Cl)cncc4Cl)c3c2c1` [Example 38, N-(3,5-dichloropyrid-4-yl)-4-difluoromethoxy-8-hydroxycarbonylcarboxamido-dibenzo[b,d]furan-1-carboxamide], on PDE4 enzyme, the IC50 stood at 1.41 nM. For the same molecule, it took 26.9 nM to reach a half-maximal effect in the test on PDE4 (EC50). With `CCOC(=O)CNc1ccc2oc3c(OC)ccc(C(=O)Nc4c(Cl)cncc4Cl)c3c2c1` [Example 52, N-(3,5-dichloropyrid-4-yl)-4-methoxy-8-(2-ethoxy-2-oxo-ethylamino)-dibenzo[b,d]furan-1-carboxamide], half-maximal inhibition against PDE4 enzyme (IC50) required 8.13 nM. In the test on PDE4, this molecule yielded an EC50 of 821 nM. For `CNC(=O)Nc1ccc2oc3c(OC)ccc(C(=O)Nc4c(Cl)cncc4Cl)c3c2c1` [Example 29, N-(3,5-dichloropyrid-4-yl)-4-methoxy-8-methylamino carboxamido-dibenzo[b,d]furan-1-carboxamide] the same measures were 2.14 nM and 19.3 nM. On PDE4 enzyme, `CN(C)S(=O)(=O)Nc1ccc2oc3c(OC(F)F)ccc(C(=O)Nc4c(Cl)cncc4Cl)c3c2c1` [Example 33, N-(3,5-dichloropyrid-4-yl)-4-difluoromethoxy-8-N,N-dimethylaminosulfonamido-dibenzo[b,d]furan-1-carboxamide] registered an IC50 of 12.1 nM. For the molecule `CS(=O)(=O)Nc1ccc2oc3c(OC(F)F)ccc(C(=O)Nc4c(Cl)cncc4Cl)c3c2c1` [Example 31, N-(3,5-dichloropyrid-4-yl)-4-difluoromethoxy-8-methanesulfonamido-dibenzo[b,d]furan-1-carboxamide sodium salt], on PDE4 enzyme (sodium salt), the IC50 turned out to be 1.43 nM. In the test on PDE4 (sodium salt), the EC50 was 3.46 nM. For `CCOC(=O)C(=O)Nc1ccc2oc3c(OC)ccc(C(=O)Nc4c(Cl)cncc4Cl)c3c2c1` [Example 08, N-(3,5-dichloropyrid-4-yl)-4-methoxy-8-ethoxycarbonylcarboxamido-dibenzo[b,d]furan-1-carboxamide], the IC50 against PDE4 enzyme was determined as 4.68 nM. The molecule also gave an EC50 in the test with PDE4 of 110 nM. At PDE4 enzyme, `CCCCNC(=S)Nc1ccc2oc3c(OC)ccc(C(=O)Nc4c(Cl)cncc4Cl)c3c2c1` [Example 45, N-(3,5-dichloropyrid-4-yl)-4-methoxy-8-(n-butylaminothiocarboxamido)-dibenzo[b,d]furan-1-carboxamide] showed an IC50 of 0.773 nM. In the test with PDE4, this molecule registered an EC50 of 6.37 nM. `COc1ccc(C(=O)Nc2c(Cl)cncc2Cl)c2c1oc1ccc(NC(=O)N3CCN(C)CC3)cc12` [Example 23, N-(3,5-dichloropyrid-4-yl)-4-methoxy-8-(N-methylpiperazin-4-ylcarboxamido)-dibenzo[b,d]furan-1-carboxamide hydrochloride]: 3.78 nM corresponded to half-maximal inhibition against PDE4 enzyme (hydrochloride) (IC50). Besides, the midpoint of the response in the test with PDE4 (hydrochloride), the EC50, lay at 4.14 nM. `COc1ccc(C(=O)Nc2c(Cl)cncc2Cl)c2c1oc1ccc(NC(=O)OCC(F)(F)F)cc12` [Example 19, N-(3,5-dichloropyrid-4-yl)-4-methoxy-8-trifluoromethylmethoxycarboxamido-dibenzo[b,d]furan-1-carboxamide]: 4.79 nM corresponded to half-maximal inhibition against PDE4 enzyme (IC50). Moreover, the EC50 in the test on PDE4 is 9.01 nM. At PDE4 enzyme, `COc1ccc(C(=O)Nc2c(Cl)cncc2Cl)c2c1oc1ccc(N(C(=O)C3CC3)C(=O)C3CC3)cc12` [Example 13, N-(3,5-dichloropyrid-4-yl)-4-methoxy-8-(N,N-dicyclopropylcarbonylamino)-dibenzo[b,d]furan-1-carboxamide] returned an IC50 of 74 nM. For `CCCCCCNC(=O)Nc1ccc2oc3c(OC)ccc(C(=O)Nc4c(Cl)cncc4Cl)c3c2c1` [Example 27, N-(3,5-dichloropyrid-4-yl)-4-methoxy-8-n-hexylamino carboxamido-dibenzo[b,d]furan-1-carboxamide], inhibition at PDE4 enzyme was half-maximal at 3.4 nM (IC50). For the same molecule, the EC50 with PDE4 came out at 4.16 nM.

On to `O=C(O)C(=O)Nc1ccc2oc3c(OC(F)F)ccc(C(=O)Nc4c(Cl)cncc4Cl)c3c2c1` [Example 39, N-(3,5-dichloropyrid-4-yl)-4-difluoromethoxy-8-hydroxycarbonylcarboxamido-dibenzo[b,d]furan-1-carboxamide disodium salt], for which the IC50 on PDE4 enzyme (disodium salt) was found to be 0.598 nM. Moreover, the EC50 in the test on PDE4 (disodium salt) was 9.19 nM. In turn, `CCS(=O)(=O)Nc1ccc2oc3c(OC(F)F)ccc(C(=O)Nc4c(Cl)cncc4Cl)c3c2c1` [Example 32, N-(3,5-dichloropyrid-4-yl)-4-difluoromethoxy-8-ethanesulfonamido-dibenzo[b,d]furan-1-carboxamide] registered an IC50 on PDE4 enzyme of 14.1 nM. For `COc1ccc(C(=O)Nc2c(Cl)cncc2Cl)c2c1oc1ccc(NC(=O)C3CC3)cc12` [Example 12, N-(3,5-dichloropyrid-4-yl)-4-methoxy-8-(cyclopropylcarbonylamino)-dibenzo[b,d]furan-1-carboxamide], the IC50 at PDE4 enzyme came to 0.557 nM. This molecule yielded an EC50 with PDE4 of 16.2 nM.

Values taken from patent publication US7393846B2, “Heterocyclic compounds useful for the treatment of inflammatory and allergic disorders” (Glenmark Pharmaceuticals, S.A., priority 2003, dated 2008).
